Test results as given in paper PMC7737769, “Pharmacological inhibition of syntenin PDZ2 domain impairs breast cancer cell activities and exosome loading with syndecan and EpCAM cargo” (Journal of Extracellular Vesicles, 2020).

What was measured:
biotinylated‐GST = assay: HTRF control with biotinylated-GST (non-specific interference with FRET signal); conditions: for GST-biot (signal ratio): 400µM compound, Figure 1c; for effect on control (biotinylated‐GST) FRET signals: HTRF primary screen, 400µM; for HTRF ASSAY GST-biot (HTRF signal ratio, control): primary screen, 400 µM compound, Table S1
Procedure: (§1) HTRF assays were performed in white 96Well Small VolumeHiBase Polystyrene Microplates (Greiner) with a total working volume of […], as described previously (Milhas et al., 2016). Briefly, compounds were firstly dispensed into the wells at 400 µM for the primary screen or with serial DMSO dilutions for IC50 measurement assays. Primary screening assays have been performed in monoplicate while IC50 measurements were performed in triplicates. All HTRF reagents were purchased from CisBio Bioassays and reconstituted according to the supplier protocols. The plates were spun for 3 min at 500 × g and then incubated at 4°C for 16 h. The HTRF signals were recorded on a POLAR star Omega plate reader (BMG Labtech) with an excitation filter at 337 nm and fluorescence wavelength measurement at 620 and 665 nm, an integration delay of 60 µs and an integration time of 400 µs. Results were analysed with a two‐wavelength signal ratio: [intensity (665 nm)/intensity (620 nm)] × 10^4. Percentage of inhibition was calculated using the following equation: % inhibition = [(compound signal)–(min signal)]/[(max signal)–(min signal)] × 100, where ‘max signal’ is the signal ratio with the compound vehicle alone (DMSO) and ‘min signal’ the signal ratio without protein B. For IC50 measurements, values were normalized and fitted with Prism (GraphPad software) using the following equation: Y = 100/(1+((X/ IC50)ˆHill slope)).
(§2) The search strategy for PDZ2 syntenin inhibitors was based on the PDZ targeted library developed from Enamine compound collection. The PDZ targeted library was developed to cover virtually all PDZ domains. Consequently, to create the syntenin PDZ2 focused library we used two independent paths: docking of the PDZ targeted library against structures of syntenin PDZ2 available in Protein Data Bank and a random selection from the PDZ targeted library. The docking has produced 21 virtual hits, which were added to 118 randomly selected compounds (10% of the pan PDZ library). The resultant set of 139 compounds, syntenin PDZ library was subjected to experimental validation. The primary screen was performed at 400µM using a previously validated Homogeneous Time Resolved Fluorescence (HTRF) assay (Milhas et al., 2016). HTRF is based on Fluorescence Resonance Energy Transfer (FRET) between two fluorescent reagents. In the present case, Anti‐GST‐Terbium antibody and streptavidin‐bound Dynamic2 were used as donor and acceptor respectively. Interactions between GST PDZ‐fusion proteins and biotinylated peptides containing PDZ binding motifs were challenged with the potential inhibitors. In parallel, control experiments were performed with a biotinylated‐GST to verify that compounds were not interfering with the FRET signal in a non‐specific manner. To identify inhibitors of syntenin PDZ interactions, we tested for the effect of the 139 compounds on syntenin‐SDC2 and syntenin‐Frizzled7 complexes (Figure 1a; Table S1). When the HTRF signal dropped below 0.9, inhibition was considered as effective. […] Noteworthy, these compounds had no effect on other PDZ complexes like GRASP55‐JAM‐B or GRASP55‐JAM‐C and Erbin‐Erbb2 or Erbin‐P0071 (Figure 1c).

Erbin‐P0071 complex = test system: T1, Erbin‐P0071 complex; assay: HTRF assay, Erbin-P0071 interaction; type: biochemical, human; conditions: 400µM compound; Figure 1c
T1 construct: human Erbin PDZ domain; made in house; host or cells: E. coli BL21 (DE3)
Procedure: as §1, §2

GRASP55‐JAM‐B complex = test system: T2, GRASP55‐JAM‐B complex; assay: HTRF assay, GRASP55-JAM-B interaction; type: biochemical, human; conditions: 400µM compound; Figure 1c
T2 construct: Human GRASP55 tandem PDZ; made in house; host or cells: E. coli BL21 (DE3)
Procedure: as §1, §2

Erbin‐Erbb2 complex = test system: T3, Erbin‐Erbb2 complex; assay: HTRF assay, Erbin-ERBB2 interaction; type: biochemical, human; conditions: 400µM compound; Figure 1c
T3 construct: human Erbin PDZ domain; made in house; host or cells: E. coli BL21 (DE3)
Procedure: as §1, §2

[1] = biological target: T4, syntenin‐SDC2 complex (GST-SyntFL / SDC2 peptide) (Homo sapiens, UniProt O00560); assay: HTRF assay, syntenin-SDC2 interaction; type: biochemical; conditions: for GST SyntFL Syndecan 2 (signal ratio): 400µM compound, Figure 1c; for inhibition of syntenin PDZ interactions: HTRF primary screen, 400µM, syntenin-SDC2 and syntenin-Frizzled7; for HTRF ASSAY GST-SyntFL SDC2 (HTRF signal ratio): primary screen, 400 µM compound, signal below 0.9 considered effective inhibition, Table S1
T4 construct: residues 1–298 or syntenin full‐length (FL) for HTRF assays; made in house; host or cells: E. coli ER2566
T4 sequence (O00560 1-298): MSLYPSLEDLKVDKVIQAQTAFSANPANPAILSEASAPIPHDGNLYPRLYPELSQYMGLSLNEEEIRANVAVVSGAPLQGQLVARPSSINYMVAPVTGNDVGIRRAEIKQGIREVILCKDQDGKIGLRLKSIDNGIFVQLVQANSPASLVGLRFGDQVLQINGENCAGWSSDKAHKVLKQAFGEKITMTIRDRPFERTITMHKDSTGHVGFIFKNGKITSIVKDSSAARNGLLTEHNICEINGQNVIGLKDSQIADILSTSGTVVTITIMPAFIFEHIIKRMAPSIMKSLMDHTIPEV

GRASP55‐JAM‐C complex = test system: T5, GRASP55‐JAM‐C complex; assay: HTRF assay, GRASP55-JAM-C interaction; type: biochemical, human; conditions: 400µM compound; Figure 1c
T5 construct: Human GRASP55 tandem PDZ; made in house; host or cells: E. coli BL21 (DE3)
Procedure: as §1, §2

[2] = test system: T6, syntenin‐Frizzled7 complex (GST-SyntFL / FZD7 peptide); assay: HTRF assay, syntenin-Frizzled 7 interaction; type: biochemical, human; conditions: for GST SyntFL Frizzled 7 (signal ratio): 400µM compound, Figure 1c; for HTRF ASSAY GST-SyntFL FZD7 (HTRF signal ratio): primary screen, 400 µM compound, signal below 0.9 considered effective inhibition, Table S1
T6 construct: residues 1–298 or syntenin full‐length (FL) for HTRF assays; made in house; host or cells: E. coli ER2566
Procedure: as §1, §2

| Structure (SMILES) | GST-biot (signal ratio) (biotinylated‐GST) | effect on control (biotinylated‐GST) FRET signals (biotinylated‐GST) | HTRF ASSAY GST-biot (HTRF signal ratio, control) (biotinylated‐GST) | GST-Erbin P0071 (signal ratio) (Erbin‐P0071 complex) | GST-GRASP JAM-B (signal ratio) (GRASP55‐JAM‐B complex) | GST-Erbin ERBB2 (signal ratio) (Erbin‐Erbb2 complex) | GST SyntFL Syndecan 2 (signal ratio) [1] | inhibition of syntenin PDZ interactions [1] | HTRF ASSAY GST-SyntFL SDC2 (HTRF signal ratio) [1] | GST-GRASP JAM-C (signal ratio) (GRASP55‐JAM‐C complex) | GST SyntFL Frizzled 7 (signal ratio) [2] | HTRF ASSAY GST-SyntFL FZD7 (HTRF signal ratio) [2] | inhibition at 400 µM ([1]; HTRF, 400 µM, syntenin-SDC2 and syntenin-Frizzled 7 complexes, read-out: extent of inhibition of Syntenin‐PDZ complexes) |
| --- | --- | --- | --- | --- | --- | --- | --- | --- | --- | --- | --- | --- | --- |
| CC(C)[C@H](NC(=O)COc1ccc2ccccc2c1)C(=O)O [Compound C4] | 0.97 | no significant effect | 1.02 | 0.89 | 0.97 | 1.02 | 0.78 | inhibit | 0.78 | 0.89 | 0.78 | 0.77 |  |
| CC(C)[C@H](NS(=O)(=O)c1ccc2c(c1)OCCCO2)C(=O)O [Compound C37] | 0.97 | no significant effect | 1.04 | 0.95 | 1 | 1.04 | 0.74 | inhibit | 0.73 | 1 | 0.7 | 0.68 |  |
| CC(C)[C@H](NS(=O)(=O)c1ccc2ccccc2c1)C(=O)O [Compound C38] | 0.96 | no significant effect | 0.92 | 1 | 1 | 0.92 | 0.58 | inhibit | 0.59 | 1 | 0.55 | 0.56 | 40% |
| Cc1ccc(S(=O)(=O)N[C@H](C(=O)O)C(C)C)cc1C [Compound C47] | 0.99 | no significant effect | 0.96 | 1 | 1.1 | 0.96 | 0.78 | inhibit | 0.74 | 1 | 0.78 | 0.71 |  |
